# Experiments:
# MCF7 cells [1] = assay: MCF7 surviving cell count (hemocytometer); conditions: two weeks
# LnCap cells = assay: LNCap prostate cancer surviving cell count; type: cell-based; conditions: two weeks, FIG. 10
# MDA-MB-231 cells [2] = assay: MDA-MB-231 colony formation, crystal violet staining; type: cell-based; conditions: 10 days, FIG. 4
# [3] = tested on: MCF7 cells over-expressing ER-α36 (MCF7/ER36); assay: Surviving cell count, MCF7 cells over-expressing ER-α36; type: cell-based; conditions: two weeks, FIG. 6
# Excerpt: MCF7 cells over-expressing ER-α36 were made by stably transfecting MCF cells with an ER-α36 expression vector. The ER-α36 expression vector was constructed by cloning a 1.1-kb cDNA fragment of ER-α36 from pBluescript plasmid into a mammalian expression vector pCB6+ as described before (Wang et al., 2005, BBRC, 336:1023-1027). The constructed ER-α36 expression vector contains the cytomegalovirus (CMV) early promoter. MCF7 cells were transfected with the ER-α36 expression vector using the FuGene6 transfection reagent (Roche Molecular Biochemicals). Forty-eight hours after transfection, the cells were re-plated and selected with 500 μg/ml of G418 (Invitrogen) for about two weeks until colonies appeared. The clones were then pooled and cultured to confirm the expression of ER-α36 by Western blot analysis.
# H226 Lung Cancer Cells = assay: H226 lung cancer surviving cell count; type: cell-based; conditions: two weeks, FIG. 10
# [4] = tested on: human breast cancer BCAP-37 cells xenografts; assay: Human breast cancer BCAP-37 xenografts in nude mice; type: in vivo, BALB/c-nu mice; conditions: 15 days, FIG. 14a
# Excerpt: The original nude mice bearing BCAP-37 breast cancer were provided by the Institute of Materia Medica, Chinese Academy of Medical Sciences. Tumor tissues were taken from the mice and cut into small pieces. Several pieces of the tumor tissues were implanted into the armpit under the right front limb of female nude mice (provided by the Division of Experimental Animals of the Medical School of Beijing University). […] Starting on the seventh day, the mice were fed with Icaritin at three dosages. The high dosage was 0.7 mg per mouse per day (about 33 mg/kg/day). The medium dosage was 0.35 mg per mouse per day (about 16.5 mg/kg/day). The low dosage was 0.18 mg per mouse per day (about 8.25 mg/kg/day). […] Olive oil was used as a negative control wherein each mouse was fed with 0.1 ml of olive oil. […] Then the mice were sacrificed and the tumor tissues were dissected from the mice and weighed. Two parallel experiments were done for the tests. Ten female BALB/c-nu mice were used for each test compounds and each dosages for one of the two parallel experiment. Eight female BALB/c-nu mice were used for each test compounds and each dosages for the other parallel experiment. […] The effect of IC 163 on inhibiting breast cancer growth was tested in the same assay as described above. IC 163 was tested at the dosage of 0.7 mg per mouse per day (about 35 mg/kg/day). […] Olive oil was used as a negative control.
# [5] = tested on: cervical cancer U14 cells; assay: Murine cervical cancer U14 tumors in ICR mice; type: in vivo; conditions: 14 days, FIG. 15a
# Experimental: The original ICR mice containing cervical cancer U14 cell line were provided by the Institute of Materia Medica, Chinese Academy of Medical Sciences. Five ml of abdominal fluid was drawn from the lower abdomen of the mice. The fluid was diluted at the ratio of 1:5 with saline. 0.2 ml of the diluted abdominal fluid was injected subcutaneously at the right front limb and chest of female ICR mice (provided by the Division of Experimental Animals of the Medical School of Beijing University). After the implantation, the mice were treated right away with Icaritin, Tamoxifen and olive oil, respectively. Icaritin was given at three dosages. The high dosage was 0.7 mg per mouse per day (about 33 mg/kg/day). The medium dosage was 0.35 mg per mouse per day (about 16.5 mg/kg/day). The low dosage was 0.18 mg per mouse per day (about 8.25 mg/kg/day). […] Olive oil was used as a negative control wherein each mouse was fed with 0.1 ml of olive oil. […] Then the mice were sacrificed and the tumor tissues were dissected from the mice and weighed. Ten female ICR mice were used for each test compounds and dosages. Three parallel experiments were carried out. […] The tumor growth inhibition rate was calculated using the same formula as Example 11.
# MCF7 cells [6] = assay: MCF7 colony formation; type: cell-based; conditions: zero to 25 μM, as concentration rose, 10 days, FIG. 5a
# PC3 cells = assay: PC3 prostate cancer surviving cell count; type: cell-based; conditions: two weeks, FIG. 10
# [7] = tested on: MDA-MB-231 cell xenografts; assay: MDA-MB-231 xenografts in nude mice, established tumors; type: in vivo; conditions: 5 mg per mouse by gavage every other day for 30 days, FIG. 11
# Experimental: (§1) The vial was wrapped with aluminium foil and placed on a rocker at 37° C. for several hours. […] The Icaritin solution was administered to mice using the gavage technique. For gavaging, we used Animal Feeding Needles (Popper; cat No. 9921, size: 20GX1.1/2).
# (§2) Tumor formation was assayed in female athymic nude mice (6 weeks old, strain CDI nu/nu, Charles River Breeding Laboratory). MCF7 cells or MDA-MB-231 cells at the concentration of 1×10^7 cells in 200 μl Matrigel (BD Biosciences) were injected into the mice by the mammary fatpad injection. A group of 5 mice were injected with each type of breast cancer cells. […] Tumor disappearance was determined by palpation, and the sizes of tumors were also monitored by measuring two perpendicular diameters with vernier calipers every other day and photographed.
# [8] = tested on: human endometrial cancer Hec1A cells; assay: MTT assay of Hec1A cell growth; type: cell-based; conditions: 24 hours
# Experimental: Human endometrial cancer Hec1A cells (ATCC No.: HTB-112™) were subseeded in a 96-well culture plate at a concentration of 5×10^3 cells/well and were cultured in DMEM containing high glucose medium (HyClone, SH30022.01B). […] The cells then were incubated with 0.5 mg/ml 3-(4,5-dimethylthiazol-2-yl)-2,5-diphenyltetrazolium bromide (MTT) for 4 hours at 37° C. wherein the MTT was reduced to insoluble purple formazan by the active mitochondrial reductase enzymes in the living cells. Then the excessive liquid MTT was removed from the reaction mixture. 150 μl of DMSO was added to dissolve the purple formazan into a colored solution. The optical density of the colored solution was measured at 490 nm using a microplate reader.
# MCF7 cell xenografts = assay: MCF7 xenografts in nude mice, established tumors; type: in vivo; conditions: 5 mg per mouse by gavage every other day for 15 days, FIG. 12
# Experimental: as §1, §2
# [9] = tested on: Tamoxifen resistant MCF7 cells (MCF7/TAM); assay: Surviving cell count, Tamoxifen resistant MCF7 cells; conditions: two weeks, FIG. 6
# breast cancer cells = conditions: background, literature (Liu 2005; Wang 2004; Ye 2005); cited from earlier work
# [10] = tested on: MDA-MB-231 cell xenografts; assay: MDA-MB-231 xenografts in nude mice, treatment right after implantation; type: in vivo; conditions: 1 mg per mouse twice a week for 36 days, started right after injection, FIG. 13
# Experimental: Tumor formation was assayed in female athymic nude mice (6 weeks old, strain CDI nu/nu, Charles River Breeding Laboratory). MDA-MB-231 cells at the concentration of 1×10^7 cells in 200 μl Matrigel (BD Biosciences) were injected into the mice by the mammary fatpad injection. A group of 5 mice were injected with the breast cancer cells. The mice were treated with Icaritin right after the injection. […] Then the mice were sacrificed and the tumor tissues were dissected from the mice, photographed and weighed.
# MDA-MB-231 cells [11] = assay: MDA-MB-231 cells treated for a week, examined under microscope; type: cell-based; conditions: 10 μM, one week, FIG. 3
# [12] = high dosage 0.7 mg per mouse per day
# [13] = low dosage 0.18 mg per mouse per day
# [14] = medium dosage 0.35 mg per mouse per day
structure (smiles),measurement,setting,value
COc1ccc(-c2oc3c(CC=C(C)C)c(O)cc(O)c3c(=O)c2O)cc1 [Icaritin],numbers of surviving MCF7 cells,"MCF7 cells [1]; 5 μM and up, FIG. 5b",significantly reduced
same,growth of cells (numbers of survived cells),"MCF7 cells [1]; 5 μM, FIG. 6",significantly inhibited
same,numbers of cells,"MCF7 cells [1]; 10 μM, FIG. 6",near zero
same,numbers of cells,LnCap cells; 5 μM,decreased
same,numbers of cells,LnCap cells; 10 μM,further reduced
same,numbers of colonies of MDA-MB-231 cells,MDA-MB-231 cells [2]; 5 μM,decreased
same,numbers of colonies of MDA-MB-231 cells,MDA-MB-231 cells [2]; 10 μM,reduced to near zero
same,growth of cells (numbers of survived cells),[3]; 5 μM,significantly inhibited
same,inhibition compared with MCF7 cells,[3]; 5 μM,stronger
same,numbers of cells,[3]; 10 μM,near zero
same,numbers of cells,H226 Lung Cancer Cells; 5 μM,decreased
same,numbers of cells,H226 Lung Cancer Cells; 10 μM,further reduced
same,tumor weight compared with negative controls,[4]; [12],reduced tumor weights
same,tumor weight compared with negative controls,[4]; [13],reduced tumor weights
same,tumor weight compared with negative controls,[4]; [14],reduced tumor weights
same,tumor weight compared with negative control,[5]; [12],reduced tumor weights
same,tumor weight compared with negative control,[5]; [13],reduced tumor weights
same,tumor weight compared with negative control,[5]; [14],reduced tumor weights
same,number of colonies of MCF7 cells,MCF7 cells [6],significantly reduced
same,numbers of cells,PC3 cells; 5 μM,decreased
same,numbers of cells,PC3 cells; 10 μM,further reduced
same,tumor size,[7],significant tumor size reduction
same,effect on the growth of Hec1A cells,[8]; 0 to 5 μM,significant inhibitory effect
same,optical density at 490 nm (MTT),"[8]; increased concentrations 0 to 5 μM, FIG. 21",declined smoothly
same,tumor size,MCF7 cell xenografts,significant tumor size reduction
same,growth of cells (numbers of survived cells),[9]; 5 μM,significantly inhibited
same,inhibition compared with MCF7 cells,[9]; 5 μM,stronger
same,numbers of cells,[9]; 10 μM,near zero
same,proliferation of breast cancer cells,breast cancer cells,significantly increase
same,tumor size,[10],tumor size reduction
same,cell morphology,MDA-MB-231 cells [11],features characteristic of apoptotic cells
same,number of surviving cells,MDA-MB-231 cells [11],dramatically reduced

# Reference: patent publication US8252835B2, “Compounds and methods for treating estrogen receptor-related diseases” (Shenogen Pharma Group Ltd., priority 2006, dated 2012)
